Laboratory results taken from ChEMBL document CHEMBL1201862, “PubChem BioAssay data set” (2004).
Calls of active or inactive are those of the source.

Experiments:
[1] = Dose-response inhibition of insulin secretion in a rat insulinoma line at 5 mM glucose (AID 1117331); type: functional, cell-based; details: INS-1E
[2] = HeLa cell cytotoxicity, dose response, cytotoxicity control, 24 h, plate reader, powder samples, set 3 (AID 651864); type: functional, cell-based
[3] = HCT116 cell viability decrease, GSK3B pretreatment – CellTiter-Glo, IC50, dose response (AID 1117339); type: functional; details: HCT-116
[4] = CellTiter-Glo luminescent dose response of DLD-1 viability loss (AID 1117352); type: functional
[5] = HeLa 2N DNA content increase, dose response, cell-based, IC50 (AID 1117349); type: functional
[6] = cytotoxicity toward HT-29 cells – cell-based, CellTiter-Glo luminescence, IC50, dose response (AID 1117330); type: functional
[7] = HeLa 4N DNA content increase, dose response, cell-based, IC50 (AID 1117351); type: functional
[8] = cytotoxicity toward Colo320 cells – cell-based, CellTiter-Glo luminescence, IC50, dose response (AID 1117334); type: functional; details: COLO 320
[9] = SNU-C1 cell viability reduction, dose response, CellTiter-Glo luminescence (AID 1117323); type: functional, cell-based
[10] = cytotoxicity toward HCT116 cells – cell-based, CellTiter-Glo luminescence, IC50, dose response (AID 1117332); type: functional; details: HCT-116
[11] = Concentration-dependent survival of SW480 colon cancer line, luminescence detection with CellTiter-Glo, half-maximal inhibitory concentration (AID 1117338); type: functional
[12] = RKO cell viability reduction, dose response, CellTiter-Glo luminescence (AID 1117322); type: functional
[13] = HepG2 cell cytotoxicity, dose response, cytotoxicity control, plate reader, dry powder, set 6 (AID 743311); type: functional, cell-based
[14] = HepG2 cell cytotoxicity, dose response, cytotoxicity control, plate reader, dry powder samples (AID 1159569); type: functional, cell-based;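 further: inhibitor potency with signal falling toward the positive control level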
[15] = P. falciparum ATP4 D1247Y mutant growth inhibitors, dose response, NITD609-resistant line, SYBR Green, dry powder (AID 1159571); type: functional, cell-based;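 further: parasites synchronized at ring stage by sorbitol before testing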
[16] = inhibitors of PGC1a acetylation in cells, dose response, cell-based, cherry-picked samples (AID 720514); type: functional;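 further: potency may reflect raised or lowered acetylation signal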
[17] = P. falciparum 3D7-ScDHODH growth inhibitors, dose response, SYBR Green, dry powder samples (AID 1159570); type: functional, cell-based;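 further: parasite growth measured after 72 hours of compound exposure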
[18] = P. falciparum Dd2 growth inhibitors, dose response, SYBR Green, dry powder samples (AID 1159566); type: functional, cell-based;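 further: potency for growth inhibition with lower SYBR green DNA signal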
[19] = P. falciparum Dd2 growth inhibitors, dose response, SYBR Green, cherry-picked samples (AID 1159567); type: functional, cell-based
[20] = Artemis endonuclease inhibitor potency, dose response, biochemical, fluorescence intensity (AID 720701); type: functional;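 further: Artemis endonuclease enzyme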
[21] = inhibitors of SNCA 5'UTR-driven reporter translation, confirmation, H4 neuroglioma cells, luminescence (AID 1988); type: functional, cell-based
Cytochrome P450 2C19 = Cytochrome P450 2C19 (Homo sapiens, UniProt P33261); assay: Cytochrome panel assay with activity outcomes. Panel member name: p450-cyp2c19 Compounds with AC50 equal or less than 10 uM are considered active; type: functional; details: read-out: AC50
[22] = inhibitors of firefly luciferase expression or activity, dose response, H4 neuroglioma cells, luminescence (AID 1990); type: functional, cell-based
Streptococcus = assay: Group A Streptococcus viability loss, dose response, counter-screen for streptokinase expression inhibitor project, luminescence, BacTiterGlo (AID 1915); type: functional, organism-based;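 further: potency for reduction of bacterial viability or growth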
[23] = Luminescence Cell-Based Dose Response HTS to Identify Inhibitors of 5'UTR Stem-Loop Driven Prion Protein mRNA Translation in H4 Neuroglioblastoma Cells. [Related pubchem assays: 1827 (Project Summary), 1813 (Primary HTS)]; type: functional
[24] = Luminescence Cell-Based Dose Retest to Confirm Inhibitors of Cancer Stem Cells. [Related pubchem assays (depositor defined):AID2717, AID2721]; type: functional; details: Homo sapiens
[25] = tested on: Streptococcus sp. 'group A'; assay: growth inhibition of control SK(-) GAS strain, dose response, counter-screen for streptokinase expression inhibitor project, luminescence, kanamycin, BacTiterGlo, confirmation (AID 1900); type: functional, organism-based
Cytochrome P450 2D6 = Cytochrome P450 2D6 (Homo sapiens, UniProt P10635);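 further: CYP2D6 member of a cytochrome P450 panel assay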
Chain of Cytochrome P450 2D6 (P10635 whole entry): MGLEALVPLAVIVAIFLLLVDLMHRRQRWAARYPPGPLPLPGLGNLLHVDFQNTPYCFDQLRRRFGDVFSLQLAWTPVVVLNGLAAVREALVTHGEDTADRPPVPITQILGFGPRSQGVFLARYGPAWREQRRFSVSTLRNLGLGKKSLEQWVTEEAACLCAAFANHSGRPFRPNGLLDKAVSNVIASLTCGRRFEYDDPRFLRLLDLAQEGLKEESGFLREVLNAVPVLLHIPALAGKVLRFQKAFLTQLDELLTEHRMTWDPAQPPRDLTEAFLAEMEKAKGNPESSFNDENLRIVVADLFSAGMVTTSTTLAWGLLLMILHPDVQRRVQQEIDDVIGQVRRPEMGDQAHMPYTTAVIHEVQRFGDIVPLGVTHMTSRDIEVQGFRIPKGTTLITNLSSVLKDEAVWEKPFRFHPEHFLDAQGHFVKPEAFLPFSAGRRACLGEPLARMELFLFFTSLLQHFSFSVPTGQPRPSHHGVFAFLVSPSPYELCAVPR

Chain of Cytochrome P450 2C19 (P33261 whole entry): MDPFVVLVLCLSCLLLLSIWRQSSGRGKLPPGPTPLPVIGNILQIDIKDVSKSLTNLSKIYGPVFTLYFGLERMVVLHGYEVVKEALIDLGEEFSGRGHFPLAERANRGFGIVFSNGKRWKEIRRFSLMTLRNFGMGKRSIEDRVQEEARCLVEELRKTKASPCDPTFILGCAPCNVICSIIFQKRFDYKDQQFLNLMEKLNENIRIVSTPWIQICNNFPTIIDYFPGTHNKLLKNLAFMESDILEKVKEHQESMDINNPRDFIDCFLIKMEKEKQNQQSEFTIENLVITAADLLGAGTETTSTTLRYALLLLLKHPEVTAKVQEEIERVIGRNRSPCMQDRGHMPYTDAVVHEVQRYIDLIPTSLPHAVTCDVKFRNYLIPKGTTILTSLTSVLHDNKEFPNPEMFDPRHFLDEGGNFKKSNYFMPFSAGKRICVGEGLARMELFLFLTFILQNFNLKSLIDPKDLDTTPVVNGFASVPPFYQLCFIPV

## OC(CCN1CCCCC1)(c1ccccc1)c1ccccc1 [PRIDINOL]
[1]
  IC50: 27 µM (inactive)

## c1ccc(Cn2nnc(NCc3ccc(N4CCCC4)cc3)n2)cc1
[2]
  AC50: > 160 µM (inactive)

## O=C1C2CC=CCC2C(=O)N1SC(Cl)(Cl)Cl (stereo not drawn) [CAPTAN]
[3]
  IC50: 2.21 µM (active)
[4]
  IC50: 0.348 µM (active)
[5]
  IC50: > 10 µM (inactive)
[6]
  IC50: 0.5 µM (active)
[7]
  IC50: > 10 µM (inactive)
[8]
  IC50: 0.306 µM (active)
[9]
  IC50: 0.903 µM (active)
[10]
  IC50: 1.76 µM (active)
[11]
  IC50: 0.0788 µM (active)
[12]
  IC50: 0.402 µM (active)

## CC(C)Oc1ccc(OCCn2c(=S)[nH]c3ccccc32)cc1
[13]
  AC50: > 52 µM (inactive)

## O=S(=O)(c1ccc(-c2ccccc2)cc1)N1C[C@@H]2N[C@H](C1)[C@@H]2c1ccc(-c2cccnc2)cc1
[14]
  AC50: 19.5 µM (active)
[15]
  AC50: 1.8 µM (active)
[16]
  AC50: 8.2 µM (active)
[17]
  AC50: 1.29 µM (active)
[18]
  AC50: 0.772 µM (active)
[19]
  AC50: 2.14 µM (active)

## Nc1nn2c(O)cc(-c3ccccc3)nc2c1N=Nc1ccccc1
[20]
  IC50: 19.9 µM (active)
[21]
  EC50: 10.5 µM (active)
Cytochrome P450 2C19
  AC50: 28.2 µM (inconclusive)
[22]
  EC50: > 60 µM (not active)
Streptococcus
  EC50: 4.43 µM (active)
[23]
  EC50: 12.7 µM (active)
[24]
  AC50: 1.62 µM (active)
[25]
  EC50: 1.67 µM (active)
Cytochrome P450 2D6
  AC50: 28.2 µM (inconclusive)
